Assays:
Assay in all cases: Test B pre-/postemergence plant response
Format in all cases: in vivo
[1] = test system: green foxtail (Setaria viridis)
Method in brief: (§1)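 Test compounds, formulated in a non-phytotoxic solvent mixture with surfactant, are applied to the soil surface (loam and sand blend) right after seeding, or sprayed over plants at the 1- to 4-leaf stage grown in peat moss/vermiculite medium. After 13 to 15 days under glasshouse conditions, each species is scored visually from 0 (no effect) to 100 (complete control) against controls.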

[2] = test system: woolly cupgrass (Eriochloa villosa)
Method in brief: as §1

[3] = test system: large crabgrass (Digitaria sanguinalis)
Method in brief: as §1

[4] = test system: downy bromegrass (Bromus tectorum)
Method in brief: as §1

[5] = test system: corn (Zea mays)
Method in brief: as §1

[6] = test system: morningglory (Ipomoea coccinea)
Method in brief: as §1

[7] = test system: giant foxtail (Setaria faberii)
Method in brief: as §1

[8] = test system: Italian ryegrass (Lolium multiflorum)
Method in brief: as §1

[9] = test system: goosegrass (Eleusine indica)
Method in brief: as §1

[10] = test system: bermudagrass (Cynodon dactylon)
Method in brief: as §1

[11] = test system: johnsongrass (Sorghum halepense)
Method in brief: as §1

[12] = test system: ragweed (common ragweed, Ambrosia elatior)
Method in brief: as §1

[13] = test system: yellow nutsedge (Cyperus esculentus)
Method in brief: as §1

[14] = Postemergence, 31 g ai/ha, 0 to 100 scale (0 no effect, 100 complete control)
[15] = Postemergence, 62 g ai/ha, scale 0 to 100 (0 no effect, 100 complete control)
[16] = Postemergence, 125 g ai/ha, scale 0 to 100 (0 no effect, 100 complete control)
[17] = Postemergence, 250 g ai/ha, scale 0 to 100 (0 no effect, 100 complete control), 13 to 15 days
[18] = Preemergence, 31 g ai/ha, scale 0 to 100 (0 no effect, 100 complete control)
[19] = Preemergence, 62 g ai/ha, scale 0 to 100 (0 no effect, 100 complete control)
[20] = Preemergence, 125 g ai/ha, scale 0 to 100, 0 no effect, 100 complete control
[21] = Preemergence, 250 g ai/ha, 0 to 100 scale
[22] = 62 g ai/ha, postemergence, 0 is no effect, 100 is complete control, 13 to 15 days

CCc1ccc(-n2c(-c3ccccc3)ncc(C(=O)C3=C(O)CCCC3=O)c2=O)cc1 [Compound 219]
100: Foxtail, Green plant response rating [1, 21] | Plant response rating, Crabgrass, Large [3, 20] | Crabgrass, Large plant response rating [3, 21] | Plant response rating, Morningglory [6, 16] | Plant response rating, Morningglory [6, 17] | Morningglory plant response rating [6, 21] | Plant response rating, Goosegrass [9, 19] | Plant response rating, Goosegrass [9, 20] | Goosegrass plant response rating [9, 21] | Plant response rating, Bermudagrass [10, 16] | Plant response rating, Bermudagrass [10, 17] | Plant response rating, Bermudagrass [10, 19] | Plant response rating, Bermudagrass [10, 20] | Bermudagrass plant response rating ([10]; Preemergence, 250 g ai/ha, 0 to 100 scale, 0 no effect, 100 complete control) | Plant response rating, Johnsongrass [11, 17] | Plant response rating, Ragweed [12, 17]
15: Plant response rating, Morningglory [6, 20] | Plant response rating, Johnsongrass [11, 19]
25: Plant response rating, Ryegrass, Italian [8, 15]
10: Plant response rating, Cupgrass, Woolly [2, 19] | Plant response rating, Crabgrass, Large [3, 18] | Plant response rating, Bromegrass, Downy [4, 20] | Plant response rating, Corn [5, 14] | Plant response rating, Foxtail, Giant [7, 20] | Ryegrass, Italian plant response rating [8, 21] | Plant response rating, Nutsedge, Yellow [13, 14]
40: Plant response rating, Ryegrass, Italian [8, 17]
98: Plant response rating, Cupgrass, Woolly [2, 17] | Plant response rating, Crabgrass, Large [3, 17] | Plant response rating, Crabgrass, Large [3, 19] | Plant response rating, Goosegrass [9, 18] | Plant response rating, Bermudagrass [10, 15] | Plant response rating, Bermudagrass [10, 18] | Plant response rating, Johnsongrass [11, 16] | Plant response rating, Ragweed [12, 15] | Ragweed plant response rating [12, 21]
90: Plant response rating, Foxtail, Green [1, 16] | Plant response rating, Foxtail, Green [1, 17] | Plant response rating, Foxtail, Green [1, 20] | Plant response rating, Crabgrass, Large [3, 14] | Plant response rating, Goosegrass [9, 14] | Nutsedge, Yellow plant response rating [13, 21]
65: Plant response rating, Johnsongrass [11, 20]
75: Plant response rating, Corn [5, 16] | Plant response rating, Ragweed [12, 19]
85: Plant response rating, Cupgrass, Woolly [2, 14] | Plant response rating, Cupgrass, Woolly [2, 15] | Plant response rating, Morningglory [6, 15] | Plant response rating, Ragweed [12, 20] | Plant response rating, Nutsedge, Yellow [13, 17] | Plant response rating, Nutsedge, Yellow [13, 20]
20: Plant response rating, Foxtail, Green [1, 18] | Plant response rating, Cupgrass, Woolly [2, 20] | Bromegrass, Downy plant response rating [4, 21] | Plant response rating, Ryegrass, Italian [8, 14]
70: Plant response rating, Foxtail, Green [1, 14] | Plant response rating, Foxtail, Green [1, 19] | Plant response rating, Foxtail, Giant [7, 14] | Plant response rating, Foxtail, Giant [7, 15] | Plant response rating, Nutsedge, Yellow [13, 16]
50: Plant response rating, Bromegrass, Downy [4, 15]
5: Plant response rating, Ryegrass, Italian [8, 20]
60: Plant response rating, Corn [5, 15] | Plant response rating, Morningglory [6, 14] | Plant response rating, Johnsongrass [11, 15]
55: Plant response rating, Nutsedge, Yellow [13, 15]
95: Plant response rating, Cupgrass, Woolly [2, 16] | Plant response rating, Crabgrass, Large [3, 15] | Plant response rating, Crabgrass, Large [3, 16] | Plant response rating, Foxtail, Giant [7, 17] | Plant response rating, Goosegrass [9, 15] | Plant response rating, Goosegrass [9, 16] | Plant response rating, Goosegrass [9, 17] | Plant response rating, Bermudagrass [10, 14]
0: Plant response rating, Cupgrass, Woolly [2, 18] | Plant response rating, Bromegrass, Downy [4, 18] | Plant response rating, Bromegrass, Downy [4, 19] | Plant response rating, Corn [5, 18] | Plant response rating, Corn [5, 19] | Plant response rating, Corn [5, 20] | Corn plant response rating [5, 21] | Plant response rating, Morningglory [6, 18] | Plant response rating, Morningglory [6, 19] | Plant response rating, Foxtail, Giant [7, 18] | Plant response rating, Foxtail, Giant [7, 19] | Plant response rating, Ryegrass, Italian [8, 18] | Plant response rating, Ryegrass, Italian [8, 19] | Plant response rating, Johnsongrass [11, 18] | Plant response rating, Nutsedge, Yellow [13, 18]
80: Plant response rating, Foxtail, Green [1, 15] | Cupgrass, Woolly plant response rating [2, 21] | Plant response rating, Bromegrass, Downy [4, 16] | Plant response rating, Bromegrass, Downy [4, 17] | Plant response rating, Corn [5, 17] | Plant response rating, Foxtail, Giant [7, 16] | Foxtail, Giant plant response rating [7, 21] | Johnsongrass plant response rating [11, 21] | Plant response rating, Ragweed [12, 14]
45: Plant response rating, Bromegrass, Downy [4, 14] | Plant response rating, Ragweed [12, 18] | Plant response rating, Nutsedge, Yellow [13, 19]

CCCn1c(-c2cc(C)cc(C)c2)ncc(C(=O)C2=C(O)CCCC2=O)c1=O [Compound 156]
95: Plant response rating, Bermudagrass [10, 16]
98: Plant response rating, Bermudagrass [10, 17]
80: Plant response rating, Crabgrass, Large [3, 17] | Plant response rating, Morningglory [6, 14] | Plant response rating, Goosegrass [9, 17] | Plant response rating, Bermudagrass [10, 14]
0: Plant response rating, Ryegrass, Italian [8, 14]
40: Plant response rating, Cupgrass, Woolly [2, 14] | Plant response rating, Bromegrass, Downy [4, 17] | Plant response rating, Ryegrass, Italian [8, 17]
45: Plant response rating, Foxtail, Green [1, 14] | Plant response rating, Crabgrass, Large [3, 14] | Plant response rating, Corn [5, 16] | Plant response rating, Johnsongrass [11, 16] | Plant response rating, Nutsedge, Yellow [13, 14]
35: Plant response rating, Bromegrass, Downy [4, 16]
100: Plant response rating, Morningglory [6, 16] | Plant response rating, Morningglory [6, 17]
20: Plant response rating, Ryegrass, Italian [8, 16]
65: Plant response rating, Cupgrass, Woolly [2, 17] | Plant response rating, Crabgrass, Large [3, 16] | Plant response rating, Goosegrass [9, 14] | Plant response rating, Johnsongrass [11, 17] | Plant response rating, Ragweed [12, 14]
15: Plant response rating, Johnsongrass [11, 14]
10: Bromegrass, Downy plant response rating (0 to 100 scale) [4, 22] | Plant response rating, Bromegrass, Downy [4, 14] | Plant response rating, Corn [5, 14]
60: Plant response rating, Corn [5, 17]
70: Plant response rating, Goosegrass [9, 16] | Plant response rating, Nutsedge, Yellow [13, 16]
90: Plant response rating, Foxtail, Giant [7, 17] | Bermudagrass plant response rating (0 to 100 scale) [10, 22] | Plant response rating, Ragweed [12, 17]
85: Plant response rating, Foxtail, Green [1, 16] | Plant response rating, Foxtail, Green [1, 17] | Plant response rating, Foxtail, Giant [7, 16]
75: Plant response rating, Foxtail, Giant [7, 14] | Plant response rating, Ragweed [12, 16] | Plant response rating, Nutsedge, Yellow [13, 17]
55: Plant response rating, Cupgrass, Woolly [2, 16]
